Test results as given in patent US10168342B2, “Lipid probes and uses thereof” (THE SCRIPPS RESEARCH INSTITUTE, priority 2015, dated 2019).

How the values were obtained:
lipids of Neuro2a cells = assay: Untargeted metabolomics (lipidomic profiling) of Neuro2a cells; assay type: cell-based, mouse; details: 10 μM, 6 h
Experimental: Discovery metabolite profiling was performed as described by Saghatelian et al., “Assignment of endogenous substrates to enzymes by global metabolite profiling,” Biochemistry 43:14332-14339 (2004) with several modifications. […] The media from the cells was removed and cells were washed with DPBS (2×5.0 mL) before adding freshly prepared media solutions containing vehicle or compound. After incubating for 6 h at 37° C. and subsequent removal of the media, the cells were harvested by scrapping in cold DPBS (3 mL) and pelleted by centrifugation in glass vials. The pellets were washed once with cold DPBS (3 mL) and then cold […] (2:1) (3 mL) was added. After vortexing, the vials were centrifuged (3,000×g, 10 min, 4° C.) and the bottom (organic) layer was transferred to a new glass vial and concentrated under a stream of N2. Samples were stored at −80° C. until the day of analysis when they were reconstituted in Mobile Phase A (100 μL, see below).
Lipid extracts were analyzed by LC/MS in both positive and negative modes using an Agilent 6520 QTOF instrument and LC separation performed on a Kinetex reversed phase C18 column (50×4.6 mm, 2.6 μm particle size, 100Å). Mobile phase A was composed of 5:1:4 isopropanol:methanol:water and Mobile phase B was composed of 99:1 isopropanol:water. Both mobile phases also contained 0.1% AcOH and NH4OAc (5 mM) to facilitate ionization and LC separation. […] To minimize carryover, LC solvents were cycled between 100% Mobile Phase A and 100% Mobile Phase B over 5 min after each run. Data analysis was performed using XCMS (Smith et al., 2006) software which is freely available online (http://xcmsonline.scripps.edu).

recombinant TMEM97 = biological target: T1, recombinant TMEM97 (Homo sapiens, UniProt Q5BJF2); assay: In situ gel-based competition of arachidonoyl probe labeling of recombinant TMEM97 in HEK293T cells; assay type: cell-based; details: TMEM97-transfected HEK293T cells, probe 5 μM, competitor 25 μM
T1 construct: Full-length cDNAs encoding for the each protein of interest were subcloned into pcDNA3.1 myc-His A; expressed in transfected cells; host or cells: HEK293T
Experimental: Proteomes were diluted to 1.0 mg/mL (total protein concentration) and 50 μL of each proteome was transferred to separate wells in a 96-well plate.
Full-length cDNAs encoding for the each protein of interest were subcloned into pcDNA3.1 myc-His A (Invitrogen) or used directly for transfections if available in a eukaryotic expression vector. HEK293T cells were grown to ˜70% confluence under standard growth conditions before adding the appropriate cDNA [control cells (“mock”) received an equal amount of empty pcDNA3.1 myc-His A vector] and FuGENE 6 or X-tremeGENE HP (Roche) transfection reagent according to the manufacturer's instructions. Cells were incubated for 36-48 hours before labeling in situ or harvesting for in vitro experiments.

[1] = Neg, m/z 716.52, RT 32.28 min, versus DMSO
[2] = Neg, m/z 721.50, RT 30.94 min, versus DMSO
[3] = Neg, m/z 786.53, RT 31.97 min, versus DMSO
[4] = Neg, m/z 788.54, RT 34.16 min, versus DMSO
[5] = Neg, m/z 808.51, RT 30.14 min, versus DMSO
[6] = Pos, m/z 788.61, RT 35.81 min, versus DMSO

T1 sequence (Q5BJF2 whole entry, species assumed): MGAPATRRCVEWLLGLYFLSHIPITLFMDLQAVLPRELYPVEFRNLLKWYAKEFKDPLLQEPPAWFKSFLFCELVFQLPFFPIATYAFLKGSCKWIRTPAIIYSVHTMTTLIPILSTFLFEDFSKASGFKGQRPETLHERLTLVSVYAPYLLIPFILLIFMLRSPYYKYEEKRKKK

## CN1CCN(C(=O)c2[nH]c3ccc([N+](=O)[O-])cc3c2-c2ccccc2)CC1 [MJN228, (4-Methylpiperazin-1-yl)(5-nitro-3-phenyl-1H-indol-2-yl)methanone]
Lipids of Neuro2a cells; Neg, m/z 255.23, RT 14.24 min, versus DMSO
  Fold Change, FFA 16:0: 1.17 fold
Lipids of Neuro2a cells; Neg, m/z 281.25, RT 15.75 min, versus DMSO
  Fold Change, FFA 18:1: 1.23 fold
Lipids of Neuro2a cells; Neg, m/z 283.26, RT 20.89 min, versus DMSO
  Fold Change, FFA 18:0: 1.22 fold
Lipids of Neuro2a cells; Neg, m/z 303.23, RT 12.39 min, versus DMSO
  Fold Change, FFA 20:4: 1.17 fold
Lipids of Neuro2a cells; Neg, m/z 444.31, RT 9.31 min, versus DMSO
  Fold Change, NAT 24:1: 2.51 fold
Lipids of Neuro2a cells; Neg, m/z 446.33, RT 13.76 min, versus DMSO
  Fold Change, NAT 24:0: 2.29 fold
Lipids of Neuro2a cells; Neg, m/z 452.28, RT 5.02 min, versus DMSO
  Fold Change, LPE 16:0: 1.25 fold
Lipids of Neuro2a cells; Neg, m/z 474.36, RT […], versus DMSO
  Fold Change, NAT 26:0: 2.75 fold
Lipids of Neuro2a cells; Neg, m/z 478.29, RT 5.66 min, versus DMSO
  Fold Change, LPE 18:1: 1.50 fold
Lipids of Neuro2a cells; Neg, m/z 480.31, RT 7.96 min, versus DMSO
  Fold Change, LPE 18:0: 1.43 fold
Lipids of Neuro2a cells; Neg, m/z 596.39, RT […], versus DMSO
  Fold Change, feature m/z 596.39: 2.02 fold
Lipids of Neuro2a cells; Neg, m/z 622.41, RT 12.66 min, versus DMSO
  Fold Change, feature m/z 622.41: 2.06 fold
Lipids of Neuro2a cells; Neg, m/z 673.48, RT 33.41 min, versus DMSO
  Fold Change, PA 34:1: 1.01 fold
Lipids of Neuro2a cells; [1]
  Change (direction), PE 34:1: DOWN
  Fold Change, PE 34:1: 1.35 fold
Lipids of Neuro2a cells; [2]
  Change (direction), PG 32:0: DOWN
  Fold Change, PG 32:0: 1.26 fold
Lipids of Neuro2a cells; Neg, m/z 738.51, RT 33.92 min, versus DMSO
  Fold Change, PE 36:4: 1.46 fold
Lipids of Neuro2a cells; Neg, m/z 747.52, RT 32.95 min, versus DMSO
  Fold Change, PG 34:1: 1.22 fold
Lipids of Neuro2a cells; Neg, m/z 749.53, RT 34.04 min, versus DMSO
  Fold Change, PG 34:0: 1.24 fold
Lipids of Neuro2a cells; Neg, m/z 760.51, RT 31.80 min, versus DMSO
  Fold Change, PS 34:1: 1.07 fold
Lipids of Neuro2a cells; Neg, m/z 764.52, RT 35.18 min, versus DMSO
  Fold Change, PE 38:5: 1.02 fold
Lipids of Neuro2a cells; Neg, m/z 766.54, RT 36.76 min, versus DMSO
  Fold Change, PE 38:4: 1.01 fold
Lipids of Neuro2a cells; Neg, m/z 775.55, RT 34.70 min, versus DMSO
  Fold Change, PG 36:1: 1.02 fold
Lipids of Neuro2a cells; [3]
  Change (direction), PS 36:2: DOWN
  Fold Change, PS 36:2: 1.11 fold
Lipids of Neuro2a cells; [4]
  Change (direction), PS 36:1: DOWN
  Fold Change, PS 36:1: 1.03 fold
Lipids of Neuro2a cells; [5]
  Change (direction), PS 38:5: DOWN
  Fold Change, PS 38:5: 1.05 fold
Lipids of Neuro2a cells; Neuro2a cells, P<0.0001
  elevation of metabolites (NAEs and NATs) versus DMSO: ≥ 2 fold
Lipids of Neuro2a cells; Pos, m/z 326.30, RT 8.36 min, versus DMSO
  Fold Change, NAE 18:1: 2.91 fold
Lipids of Neuro2a cells; Pos, m/z 328.32, RT 12.20 min, versus DMSO
  Fold Change, NAE 18:0: 2.00 fold
Lipids of Neuro2a cells; Pos, m/z 331.28, RT 8.51 min, versus DMSO
  Fold Change, MAG 16:0: 1.67 fold
Lipids of Neuro2a cells; Pos, m/z 358.30, RT 9.68 min, versus DMSO
  Fold Change, MAG 18:1: 1.37 fold
Lipids of Neuro2a cells; Pos, m/z 371.10, RT 13.51 min, versus DMSO
  Fold Change, feature m/z 371.10: 2.00 fold
Lipids of Neuro2a cells; Pos, m/z 522.35, RT 5.29 min, versus DMSO
  Fold Change, LPC 18:1: 1.24 fold
Lipids of Neuro2a cells; Pos, m/z 524.37, RT 7.49 min, versus DMSO
  Fold Change, LPC 18:0: 1.48 fold
Lipids of Neuro2a cells; Pos, m/z 544.34, RT 5.29 min, versus DMSO
  Fold Change, LPC 20:4: 1.69 fold
Lipids of Neuro2a cells; Pos, m/z 669.22, RT 13.52 min, versus DMSO
  Fold Change, feature m/z 669.22: 2.15 fold
Lipids of Neuro2a cells; Pos, m/z 704.21, RT 19.42 min, versus DMSO
  Fold Change, feature m/z 704.21: 2.45 fold
Lipids of Neuro2a cells; Pos, m/z 705.21, RT 19.44 min, versus DMSO
  Fold Change, feature m/z 705.21: 2.63 fold
Lipids of Neuro2a cells; Pos, m/z 743.24, RT 19.42 min, versus DMSO
  Fold Change, feature m/z 743.24: 2.56 fold
Lipids of Neuro2a cells; Pos, m/z 744.24, RT 19.44 min, versus DMSO
  Fold Change, feature m/z 744.24: 2.88 fold
Lipids of Neuro2a cells; Pos, m/z 745.24, RT 19.44 min, versus DMSO
  Fold Change, feature m/z 745.24: 2.81 fold
Lipids of Neuro2a cells; Pos, m/z 762.60, RT 36.86 min, versus DMSO
  Fold Change, PC 34:0: 1.00 fold
Lipids of Neuro2a cells; Pos, m/z 776.23, RT 25.46 min, versus DMSO
  Fold Change, feature m/z 776.23: 2.50 fold
Lipids of Neuro2a cells; Pos, m/z 777.23, RT 25.48 min, versus DMSO
  Fold Change, feature m/z 777.23: 2.52 fold
Lipids of Neuro2a cells; Pos, m/z 778.23, RT 25.47 min, versus DMSO
  Fold Change, feature m/z 778.23: 2.41 fold
Lipids of Neuro2a cells; Pos, m/z 779.23, RT 25.47 min, versus DMSO
  Fold Change, feature m/z 779.23: 2.59 fold
Lipids of Neuro2a cells; [6]
  Change (direction), PC 36:1: DOWN
  Fold Change, PC 36:1: 1.04 fold
Lipids of Neuro2a cells; Pos, m/z 817.26, RT 25.47 min, versus DMSO
  Fold Change, feature m/z 817.26: 2.35 fold
Lipids of Neuro2a cells; Pos, m/z 818.26, RT 25.47 min, versus DMSO
  Fold Change, feature m/z 818.26: 2.51 fold
Lipids of Neuro2a cells; Pos, m/z 819.26, RT 25.46 min, versus DMSO
  Fold Change, feature m/z 819.26: 2.85 fold
Lipids of Neuro2a cells; Pos, m/z 820.26, RT 25.47 min, versus DMSO
  Fold Change, feature m/z 820.26: 2.79 fold
Lipids of Neuro2a cells; Pos, m/z 850.25, RT 30.92 min, versus DMSO
  Fold Change, feature m/z 850.25: 2.42 fold
Lipids of Neuro2a cells; Pos, m/z 851.25, RT 30.92 min, versus DMSO
  Fold Change, feature m/z 851.25: 2.41 fold
Lipids of Neuro2a cells; Pos, m/z 852.25, RT 30.92 min, versus DMSO
  Fold Change, feature m/z 852.25: 2.46 fold
Lipids of Neuro2a cells; Pos, m/z 853.25, RT 30.92 min, versus DMSO
  Fold Change, feature m/z 853.25: 2.61 fold
Lipids of Neuro2a cells; Pos, m/z 924.27, RT 33.83 min, versus DMSO
  Fold Change, feature m/z 924.27: 2.14 fold
Lipids of Neuro2a cells; Pos, m/z 925.27, RT 33.83 min, versus DMSO
  Fold Change, feature m/z 925.27: 2.19 fold
Lipids of Neuro2a cells; Pos, m/z 926.27, RT 33.84 min, versus DMSO
  Fold Change, feature m/z 926.27: 2.27 fold
Lipids of Neuro2a cells; Pos, m/z 927.27, RT 33.83 min, versus DMSO
  Fold Change, feature m/z 927.27: 2.19 fold

## C=CCN(C)CCCCCCOc1ccc(C(=O)c2ccc(Br)cc2)c(F)c1 [Ro 48-8071, reference compound]
Recombinant TMEM97
  competition of arachidonoyl probe labeling of recombinant TMEM97: competition was observed
